The values below come from PMC7071076, “Antibacterial Activity and Pharmacokinetic Profile of a Promising Antibacterial Agent: 22-(2-Amino-phenylsulfanyl)-22-Deoxypleuromutilin” (Molecules, 2020).

≈ marks a conversion by molar mass, not a printed value.

Data set [1] deals with E. coli ATCC 25922. The data set can be described thus: MIC testing (broth dilution, 96-well plate). Type of data set: cell-based. The note with it: Escherichia coli, ATCC25922. The method, then:
(§1) The MIC of amphenmulin against MRSA, Escherichia coli, Salmonella typhimurium, Enterococcus faecalis, and Enterococcus faecium were determined using tiamulin as controls. MIC values were measured by the method of previous work. Staphylococcus aureus ATCC 29213 was used as the quality control bacteria, and the quality control range was referred to the Clinical and Laboratory Standards Institute (CLSI). The bacteria solution was diluted to ~10^6 CFU/mL with Mueller–Hinton (MH) broth for MRSA, Escherichia coli and Salmonella typhimurium while Trypticase Soy Broth for Enterococcus faecalis and Enterococcus faecium. Drugs were dissolved in an aqueous solution of N, N-dimethylformamide (DMF) at a concentration of 2560 µg/mL, and then diluted with broth to prepare working solution (1280 µg/mL). The drug susceptibility testing was performed in 96-well plate. A total of 20 µL of working solution was added into column 1 and well mixed as a 10-fold dilution, following which Serial 2-fold dilutions were prepared to provide concentration ranges of 128–0.0078 µg/mL. Blank broth (no cultures) and bacteria solution (drugs replaced by blank solvent) were set as drug-free controls. Each 96-well plate was cultured at 37 °C for 24 h. The MIC value is the lowest concentration of amphenmulin which inhibits the visible growth of bacteria. The experiment was repeated three times.

Data set [2] has as its system E. faecalis ATCC 29212. The data set can be described thus: MIC testing (broth dilution, 96-well plate). It counts as cell-based. The note with it: Enterococcus faecalis, ATCC29212. On the procedure: as §1
The test system of data set [3] is E. faecium ATCC 35667. The data set can be described thus: MIC testing (broth dilution, 96-well plate). Type of data set: cell-based. The settings on record: Enterococcus faecium, ATCC35667. The method, then:
as §1

For data set [4], the system named is S. aureus ATCC 29213. The data set can be described thus: MIC testing (broth dilution, 96-well plate). The settings on record: Staphylococcus aureus, ATCC29213. Type of data set: cell-based. The method, then:
as §1

The test system of data set [5] is S. typhimurium ATCC 14028. The data set can be described thus: MIC testing (broth dilution, 96-well plate). Type of data set: cell-based. The settings on record: Salmonella enterica. The method, then:
as §1

The subject of data set [6] is MRSA. The experiment in a line: MIC against MRSA (summary over strains). The settings on record: Staphylococcus aureus, range over strains, read-out: minimal inhibitory concentration. It counts as cell-based. The method, then:
as §1

For data set [7], the system named is MRSA ATCC 43300. The experiment in a line: Postantibiotic effect (PAE). Type of data set: cell-based, Staphylococcus aureus. The method, then: The PAE was determined with previously methods. MRSA in logarithmic phase was diluted to 10^6 CFU/mL using MH broth as the inoculum. […] The group in which the drug was replaced by 0.9% saline was served as the control. All the samples were incubated at 37 °C for 1 and 2 h. At the end of incubation, the drug was removed by 1000-fold dilution with MH broth which was preheated at 37 °C. After well mixing, the broth was further cultured at 37 °C. 100 µL culture solution was extracted at different time intervals (0, 1, 2, 4, 6, and 8 h). Following a 10-fold dilution, colonies were counted after 20 h of incubation. The kinetic curve was established with the logarithm of the colony number as the ordinate and the time as the abscissa. The PAE was presented in hour and calculated by the equation PAE = TA − TC [40]. TA was defined as the culture time required for the number of MRSA to up to 1 log CFU/mL after the drug removal, and TC was the culture time required for the control group.

The nature of data set [8]: Acute oral toxicity study. The settings on record: both sexes, KM, mouse, in vivo, 5000 mg/kg; mice, oral (gavage), single dose. The method, then: (§2) The acute toxicity test mainly referred to the previous reports with some modifications. Seven male and seven female KM mice in SPF grade were used for this study. Amphenmulin was formulated in DMSO and given in a single- dose at 5000 mg/kg by gavage, while the control group were given DMSO without drug. […] The median lethal dose (LD50) was calculated by modified Karber method on day 15. The experiment was repeated twice.

The subject of data set [9] is KM mice. The data set can be described thus: Acute oral toxicity study. The settings on record: mouse, in vivo, 5000 mg/kg. On the procedure: as §2

With `C=C[C@]1(C)C[C@@H](OC(=O)CSc2ccccc2N)[C@]2(C)[C@H](C)CC[C@]3(CCC(=O)[C@H]32)[C@@H](C)[C@@H]1O` [Amphenmulin, 22-(2-amino-phenylsulfanyl)-22-deoxypleuromutilin], the MIC was over 128 µg/mL in [1]; over 128 µg/mL in [2]; 0.125 µg/mL (≈ 0.257 µM) in [3]; 0.0156 µg/mL (≈ 0.0321 µM) in data set [4]; over 128 µg/mL in data set [5]; 0.0156 to 8 µg/mL (≈ 0.0321 to 16.5 µM) in data set [6]. Also, the PAE was determined as 0.71 h in [7] (1× MIC, exposure for 1 h); 1.35 h in data set [7] (1× MIC, exposure for 2 h); 1.78 h in data set [7] (4× MIC, exposure for 1 h); 2.83 h in data set [7] (4× MIC, exposure for 2 h). In data set [8], the LD50 at 14 days is over 5000 mg/kg. In data set [9], the mortality result is recorded as “No mice died”. Besides, in data set [9] (po), the abnormal symptoms entry is “increase in the heart rate, excitement of some mice and inappetence”.
